Measurements reported in patent US4383113A, “Agricultural sulfonamides” (E. I. Du Pont de Nemours and Company, priority 1981, dated 1983).

Legend:
Parameters in all cases: key: 0 = no effect, 10 = maximum effect; letter = response symbol
crabgrass [1] = assay: Test A pre-emergence; format: in vivo, Digitaria spp.
Description: (§1) The activity of these compounds was discovered in a number of greenhouse and field tests. The ratings are based on a numerical scale extending from 0=no effect, to 10=maximum effect. The accompanying descriptive symbols have the following meanings:
(§2) Seeds of crabgrass (Digitaria spp.), barnyardgrass (Echinochloa crusgalli), wild oats (Avena fatua), cassia (Cassia tora), morningglory (Ipomoea spp.), cocklebur (Xanthium spp.), sorghum, corn, soybean, rice, wheat and nutsedge tubers (Cyperus rotundus) were planted in a growth medium and treated preemergence with a nonphytotoxic solvent solution of the compounds of Table XII. Other batches of seeds and tubers for all of the foregoing weed and crop plants were planted at the same time as controls. The control plantings were untreated; i.e., neither any compound nor any solvent was applied. At the same time, cotton having five leaves (including cotyledonary ones), bush beans with the third trifoliate leaf expanding, crabgrass with two leaves, barnyardgrass with two leaves, wild oats with two leaves, cassia with three leaves (including cotyledonary ones), morningglory with four leaves (including the cotyledonary ones), cocklebur with four leaves (including the cotyledonary ones), sorghum with four leaves, corn with four leaves, soybean with two cotyledonary leaves, rice with three leaves, wheat with one leaf, and nutsedge with three-five leaves were sprayed with a nonphytotoxic solvent solution of the compounds of Table XII. Other groups of all the same weed and crop plants were sprayed with the same nonphytotoxic solvent so as to provide control plants. Preemergence and postemergence treated plants and controls were maintained in a greenhouse for sixteen days, then all treated plants were compared with their respective controls and rated visually for response to treatment.

barnyardgrass [2] = assay: Test A pre-emergence; format: in vivo, Echinochloa crusgalli
Description: as §1, §2

cassia [3] = assay: Test A pre-emergence; format: in vivo, Cassia tora
Description: as §1, §2

cocklebur [4] = assay: Test A pre-emergence; format: in vivo, Xanthium spp.
Description: as §1, §2

wheat [5] = assay: Test A pre-emergence; format: in vivo
Description: as §1, §2

soybean [6] = assay: Test A pre-emergence; format: in vivo
Description: as §1, §2

sorghum [7] = assay: Test A pre-emergence; format: in vivo
Description: as §1, §2

morningglory [8] = assay: Test A pre-emergence; format: in vivo, Ipomoea spp.
Description: as §1, §2

soybean [9] = assay: Test A post-emergence; format: in vivo; conditions: 0.4 kg/ha
Description: as §1, §2

wild oats [10] = assay: Test A post-emergence; format: in vivo, Avena fatua; conditions: 0.4 kg/ha
Description: as §1, §2

crabgrass [11] = assay: Test A post-emergence; format: in vivo, Digitaria spp.; conditions: 0.4 kg/ha
Description: as §1, §2

nutsedge = assay: Test A post-emergence; format: in vivo, Cyperus rotundus; conditions: 0.4 kg/ha
Description: as §1, §2

barnyardgrass [12] = assay: Test A post-emergence; format: in vivo, Echinochloa crusgalli; conditions: 0.4 kg/ha
Description: as §1, §2

cassia [13] = assay: Test A post-emergence; format: in vivo, Cassia tora; conditions: 0.4 kg/ha
Description: as §1, §2

corn [14] = assay: Test A pre-emergence; format: in vivo
Description: as §1, §2

wild oats [15] = assay: Test A pre-emergence; format: in vivo, Avena fatua; conditions: 0.4 kg/ha
Description: as §1, §2

wheat [16] = assay: Test A post-emergence; format: in vivo; conditions: 0.4 kg/ha
Description: as §1, §2

sorghum [17] = assay: Test A post-emergence; format: in vivo; conditions: 0.4 kg/ha
Description: as §1, §2

bush bean = assay: Test A post-emergence; format: in vivo, bush beans; conditions: 0.4 kg/ha
morningglory [18] = assay: Test A post-emergence; format: in vivo, Ipomoea spp.; conditions: 0.4 kg/ha
Description: as §1, §2

cocklebur [19] = assay: Test A post-emergence; format: in vivo, Xanthium spp.; conditions: 0.4 kg/ha
Description: as §1, §2

corn [20] = assay: Test A post-emergence; format: in vivo; conditions: 0.4 kg/ha
Description: as §1, §2

CCOC(=O)c1ccccc1S(=O)(=O)NC(=O)Nc1nc(OC)cc(OC)n1 [drawing 508]
response rating (crabgrass [1]; 2 kg/ha): 9H | response rating (barnyardgrass [2]; 2 kg/ha): 9H | response rating (cassia [3]; 2 kg/ha): 9G | response rating (cocklebur [4]; 2 kg/ha): 9G | response rating (wheat [5]; 2 kg/ha): 9H | response rating (soybean [6]; 2 kg/ha): 9H | response rating (sorghum [7]; 2 kg/ha): 10H

COC(=O)c1ccccc1S(=O)(=O)NC(=O)Nc1nc(C)cc(C)n1 [drawing 479]
response rating (crabgrass [1]; 0.4 kg/ha): 9G | response rating (crabgrass [1]; 2 kg/ha): 9G | response rating (barnyardgrass [2]; 0.4 kg/ha): 9H | response rating (barnyardgrass [2]; 2 kg/ha): 9H | response rating (cassia [3]; 0.4 kg/ha): 8G | response rating (cassia [3]; 2 kg/ha): 9G | response rating (cocklebur [4]; 0.4 kg/ha): 9G | response rating (cocklebur [4]; 2 kg/ha): 9G | response rating (wheat [5]; 0.4 kg/ha): 9H | response rating (wheat [5]; 2 kg/ha): 9H | response rating (soybean [6]; 0.4 kg/ha): 9H | response rating (soybean [6]; 2 kg/ha): 9H | response rating (morningglory [8]; 0.4 kg/ha): 9G | response rating (morningglory [8]; 2 kg/ha): 9G

COC(=O)c1ccccc1S(=O)(=O)NC(=O)N(C)c1nc(C)cc(C)n1 [drawing 419]
response rating (soybean [9]): 3C | response rating (wild oats [10]): 6C | response rating (crabgrass [11]): 7G | response rating (nutsedge): 7G | response rating (barnyardgrass [12]): 9C | response rating (cassia [13]): 2C

COc1cc(C)nc(NC(=O)NS(=O)(=O)c2ccccc2C(=O)OC(C)CCl)n1 (stereo not drawn) [drawing 545]
response rating (cassia [3]; 0.4 kg/ha): 9G | response rating (cocklebur [4]; 0.4 kg/ha): 9G | response rating (wheat [5]; 0.4 kg/ha): 9H | response rating (corn [14]; 0.4 kg/ha): 9H | response rating (soybean [6]; 0.4 kg/ha): 9H | response rating (morningglory [8]; 0.4 kg/ha): 9G

COC(=O)c1cc(Cl)ccc1S(=O)(=O)NC(=O)Nc1nc(OC)nc(OC)n1 [drawing 502]
response rating (crabgrass [1]; 0.4 kg/ha): 1C | response rating (cocklebur [4]; 0.4 kg/ha): 9G | response rating (wheat [5]; 0.4 kg/ha): 1C | response rating (soybean [6]; 0.4 kg/ha): 9H | response rating (sorghum [7]; 0.4 kg/ha): 9H | response rating (wild oats [15]): 8G | response rating (morningglory [8]; 0.4 kg/ha): 9G

COc1nc(C)nc(NC(=O)NS(=O)(=O)c2ccccc2C(=O)OC2CCCC2)n1 [drawing 445]
response rating (wheat [16]): 1C | response rating (soybean [9]): 9C | response rating (sorghum [17]): 8G | response rating (wild oats [10]): 1C | response rating (crabgrass [11]): 1C | response rating (nutsedge): 7G | response rating (bush bean): 8C | response rating (morningglory [18]): 10C | response rating (cocklebur [19]): 9C

COc1cc(C)nc(NC(=O)NS(=O)(=O)c2ccccc2C(=O)OC(C)C)n1 [drawing 504]
response rating (crabgrass [1]; 0.4 kg/ha): 8G | response rating (wheat [5]; 0.4 kg/ha): 9G | response rating (wild oats [15]): 8G | response rating (morningglory [8]; 0.4 kg/ha): 9H

CCOC(=O)c1ccccc1S(=O)(=O)NC(=O)Nc1nc(OC)cc(OC)n1 [drawing 509]
response rating (barnyardgrass [2]; 0.4 kg/ha): 9H | response rating (cassia [3]; 0.4 kg/ha): 9G | response rating (cocklebur [4]; 0.4 kg/ha): 9G | response rating (wheat [5]; 0.4 kg/ha): 9H | response rating (soybean [6]; 0.4 kg/ha): 9H | response rating (sorghum [7]; 0.4 kg/ha): 9H | response rating (wild oats [15]): 9G

CCC(C)OC(=O)c1ccccc1S(=O)(=O)NC(=O)Nc1nc(OC)cc(OC)n1 (stereo not drawn) [drawing 490]
response rating (crabgrass [1]; 0.4 kg/ha): 0 | response rating (barnyardgrass [2]; 0.4 kg/ha): 9H | response rating (cassia [3]; 0.4 kg/ha): 8G | response rating (cocklebur [4]; 0.4 kg/ha): 9G | response rating (wheat [5]; 0.4 kg/ha): 2G | response rating (soybean [6]; 0.4 kg/ha): 8H | response rating (sorghum [7]; 0.4 kg/ha): 9G | response rating (wild oats [15]): 8G | response rating (morningglory [8]; 0.4 kg/ha): 9G

COc1cc(OC)nc(NC(=O)NS(=O)(=O)c2ccccc2C(=O)OC(C)C)n1 [drawing 503]
response rating (crabgrass [1]; 0.4 kg/ha): 8G | response rating (wheat [5]; 0.4 kg/ha): 7G | response rating (wild oats [15]): 7G | response rating (morningglory [8]; 0.4 kg/ha): 9G

C=CCOC(=O)c1ccccc1S(=O)(=O)NC(=O)Nc1nc(C)nc(OC)n1 [drawing 518]
response rating (crabgrass [1]; 0.4 kg/ha): 9H | response rating (barnyardgrass [2]; 0.4 kg/ha): 9H | response rating (cassia [3]; 0.4 kg/ha): 9G | response rating (cocklebur [4]; 0.4 kg/ha): 9G | response rating (wheat [5]; 0.4 kg/ha): 9H | response rating (soybean [6]; 0.4 kg/ha): 9H | response rating (sorghum [7]; 0.4 kg/ha): 10H | response rating (morningglory [8]; 0.4 kg/ha): 9G

CCCC(OC(=O)c1ccccc1S(=O)(=O)NC(=O)Nc1nc(C)nc(OC)n1)C(C)C (stereo not drawn) [drawing 458]
response rating (corn [20]): 9C | response rating (soybean [9]): 9C | response rating (crabgrass [11]): 3C | response rating (bush bean): 9C | response rating (barnyardgrass [12]): 9C | response rating (cassia [13]): 9C | response rating (morningglory [18]): 10C | response rating (cocklebur [19]): 10C

COC(=O)c1ccccc1S(=O)(=O)NC(=O)Nc1nc(OC)nc(OCC(F)(F)F)n1 [drawing 540]
response rating (crabgrass [1]; 0.4 kg/ha): 2G | response rating (cassia [3]; 0.4 kg/ha): 9G | response rating (cocklebur [4]; 0.4 kg/ha): 9G | response rating (wheat [5]; 0.4 kg/ha): 6G | response rating (soybean [6]; 0.4 kg/ha): 9H | response rating (morningglory [8]; 0.4 kg/ha): 9G

COc1cc(C)nc(NC(=O)NS(=O)(=O)c2ccccc2C(=O)OC2CCOC2)n1 (stereo not drawn) [drawing 446]
response rating (wheat [16]): 7C | response rating (soybean [9]): 9C | response rating (sorghum [17]): 9C | response rating (wild oats [10]): 7G | response rating (bush bean): 9C | response rating (barnyardgrass [12]): 9C | response rating (morningglory [18]): 9C

CCC(C)OC(=O)c1ccccc1S(=O)(=O)NC(=O)Nc1nc(OC)cc(OC)n1 (stereo not drawn) [drawing 423]
response rating (wheat [16]): 1C | response rating (corn [20]): 9H | response rating (soybean [9]): 9C | response rating (wild oats [10]): 2C | response rating (crabgrass [11]): 2A | response rating (nutsedge): 7G | response rating (barnyardgrass [12]): 9C | response rating (morningglory [18]): 9C

COC(=O)c1ccccc1S(=O)(=O)NC(=O)Nc1nc(C)nc(OC)n1 [drawing 482]
response rating (barnyardgrass [2]; 0.4 kg/ha): 9H | response rating (cassia [3]; 0.4 kg/ha): 9G | response rating (cocklebur [4]; 0.4 kg/ha): 9G | response rating (wheat [5]; 0.4 kg/ha): 9H | response rating (soybean [6]; 0.4 kg/ha): 9H | response rating (sorghum [7]; 0.4 kg/ha): 9H | response rating (wild oats [15]): 9H | response rating (morningglory [8]; 0.4 kg/ha): 9H

CCCCCCCCCCCCNC(=O)c1ccccc1S(=O)(=O)NC(=O)Nc1nc(C)nc(OC)n1 [drawing 467]
response rating (soybean [9]): 9C | response rating (nutsedge): 9G | response rating (morningglory [18]): 9C

CCC(C)OC(=O)c1ccccc1S(=O)(=O)NC(=O)Nc1nc(C)cc(OC)n1 (stereo not drawn) [drawing 491]
response rating (crabgrass [1]; 0.4 kg/ha): 6G | response rating (barnyardgrass [2]; 0.4 kg/ha): 9H | response rating (cassia [3]; 0.4 kg/ha): 9G | response rating (wheat [5]; 0.4 kg/ha): 9G | response rating (soybean [6]; 0.4 kg/ha): 9H | response rating (sorghum [7]; 0.4 kg/ha): 9H | response rating (morningglory [8]; 0.4 kg/ha): 9G

COc1cc(C)nc(NC(=O)NS(=O)(=O)c2ccccc2C(=O)NC(C)C)n1 [drawing 463]
response rating (soybean [9]): 9C | response rating (sorghum [17]): 9C | response rating (wild oats [10]): 9C | response rating (crabgrass [11]): 10C | response rating (nutsedge): 9C | response rating (barnyardgrass [12]): 9C | response rating (cassia [13]): 9C | response rating (morningglory [18]): 10C | response rating (cocklebur [19]): 9C

Cc1cc(C)nc(NC(=O)NS(=O)(=O)c2ccccc2C(=O)O)n1 [drawing 510]
response rating (corn [14]; 2 kg/ha): 3G

COc1cc(C)nc(NC(=O)NS(=O)(=O)c2ccccc2C(=O)OCCOc2ccccc2)n1 [drawing 528]
response rating (cocklebur [4]; 0.4 kg/ha): 9G | response rating (wheat [5]; 0.4 kg/ha): 9H | response rating (corn [14]; 0.4 kg/ha): 9G | response rating (soybean [6]; 0.4 kg/ha): 9H | response rating (morningglory [8]; 0.4 kg/ha): 9C

COc1nc(NC(=O)NS(=O)(=O)c2ccccc2C(=O)OC(C)C)nc(OC)n1 [drawing 505]
response rating (crabgrass [1]; 0.4 kg/ha): 7G | response rating (wheat [5]; 0.4 kg/ha): 7G | response rating (wild oats [15]): 8G

COc1cc(OC)nc(NC(=O)NS(=O)(=O)c2ccccc2C(=O)OCCCl)n1 [drawing 487]
response rating (barnyardgrass [2]; 0.4 kg/ha): 9H | response rating (cocklebur [4]; 0.4 kg/ha): 9G | response rating (wheat [5]; 0.4 kg/ha): 9G | response rating (soybean [6]; 0.4 kg/ha): 9H | response rating (sorghum [7]; 0.4 kg/ha): 9H | response rating (wild oats [15]): 9G | response rating (morningglory [8]; 0.4 kg/ha): 9G
